Experimental data reported in paper PMC10343299, “S-Ethyl-Isothiocitrullin-Based Dipeptides and 1,2,4-Oxadiazole Pseudo-Dipeptides: Solid Phase Synthesis and Evaluation as NO Synthase Inhibitors” (Molecules, 2023).
Where two headings read alike, the source gives them in different places.

Experiments:
[1] = target: T1, rat nNOS (Rattus norvegicus, UniProt P29476); experiment: NOS inhibition, oxyhemoglobin (hemoglobin capture) test, recombinant nNOS; assay type: biochemical; conditions: for IC50: recombinant enzyme, 10 µM arginine, triplicate, NI = <50% inhibition at 100 μM
T1 construct: Full-length recombinant rat nNOS, mouse iNOS, bovine eNOS; made in house; host or cells: Escherichia coli
Procedure: (§1) The inhibitory effects of all compounds against the three recombinant NOSs (rat nNOS, mouse iNOS, and bovine eNOS) were evaluated in 96-well plates using the oxyhemoglobin test. A first screening at 100 and 10 μM was performed, and the IC50 values were measured for compounds showing more than 50% inhibition at 100 μM (Table 1 and Table 2).
(§2) Full-length recombinant rat nNOS, mouse iNOS, bovine eNOS, and the heme domains of rat brain nNOS and mouse iNOS were expressed in Escherichia coli and purified as described previously.
(§3) NOS catalytic activity was measured using the hemoglobin capture assay. The test was performed at 30 °C in 96-well microplates using a final volume of 200 µL. The assay mixture contained 100 µM NADPH, 10 µM BH4, 6 µM HbO2, 100 µM DTT, 5 µM FAD, 5 µM FMN, 10 µM (nNOS and eNOS), or 20 µM (iNOS) arginine, all in a 100 mM Hepes buffer, pH 7.5, and, for constitutive n- and e-NOS, 10 µg/mL calmodulin, and 1 mM CaCl2. The studied compounds were introduced as 2 μL of ×100 concentrated solutions in DMSO, and the control experiments were performed with DMSO or the buffer only. The kinetics of NO production were measured at 401 nm using an Infinite F500 microplate reader (Tecan, Singapore).

[2] = target: T2, mouse iNOS (Mus musculus, UniProt P29477); experiment: NOS inhibition, oxyhemoglobin (hemoglobin capture) test, recombinant iNOS; assay type: biochemical; conditions: recombinant enzyme, 20 µM arginine, triplicate, NI = <50% inhibition at 100 μM; for inhibition at 100 µM: read-out: IC50 (μM) iNOS (Mouse)
T2 construct: Full-length recombinant rat nNOS, mouse iNOS, bovine eNOS; made in house; host or cells: Escherichia coli
T2 sequence (P29477 1-1144): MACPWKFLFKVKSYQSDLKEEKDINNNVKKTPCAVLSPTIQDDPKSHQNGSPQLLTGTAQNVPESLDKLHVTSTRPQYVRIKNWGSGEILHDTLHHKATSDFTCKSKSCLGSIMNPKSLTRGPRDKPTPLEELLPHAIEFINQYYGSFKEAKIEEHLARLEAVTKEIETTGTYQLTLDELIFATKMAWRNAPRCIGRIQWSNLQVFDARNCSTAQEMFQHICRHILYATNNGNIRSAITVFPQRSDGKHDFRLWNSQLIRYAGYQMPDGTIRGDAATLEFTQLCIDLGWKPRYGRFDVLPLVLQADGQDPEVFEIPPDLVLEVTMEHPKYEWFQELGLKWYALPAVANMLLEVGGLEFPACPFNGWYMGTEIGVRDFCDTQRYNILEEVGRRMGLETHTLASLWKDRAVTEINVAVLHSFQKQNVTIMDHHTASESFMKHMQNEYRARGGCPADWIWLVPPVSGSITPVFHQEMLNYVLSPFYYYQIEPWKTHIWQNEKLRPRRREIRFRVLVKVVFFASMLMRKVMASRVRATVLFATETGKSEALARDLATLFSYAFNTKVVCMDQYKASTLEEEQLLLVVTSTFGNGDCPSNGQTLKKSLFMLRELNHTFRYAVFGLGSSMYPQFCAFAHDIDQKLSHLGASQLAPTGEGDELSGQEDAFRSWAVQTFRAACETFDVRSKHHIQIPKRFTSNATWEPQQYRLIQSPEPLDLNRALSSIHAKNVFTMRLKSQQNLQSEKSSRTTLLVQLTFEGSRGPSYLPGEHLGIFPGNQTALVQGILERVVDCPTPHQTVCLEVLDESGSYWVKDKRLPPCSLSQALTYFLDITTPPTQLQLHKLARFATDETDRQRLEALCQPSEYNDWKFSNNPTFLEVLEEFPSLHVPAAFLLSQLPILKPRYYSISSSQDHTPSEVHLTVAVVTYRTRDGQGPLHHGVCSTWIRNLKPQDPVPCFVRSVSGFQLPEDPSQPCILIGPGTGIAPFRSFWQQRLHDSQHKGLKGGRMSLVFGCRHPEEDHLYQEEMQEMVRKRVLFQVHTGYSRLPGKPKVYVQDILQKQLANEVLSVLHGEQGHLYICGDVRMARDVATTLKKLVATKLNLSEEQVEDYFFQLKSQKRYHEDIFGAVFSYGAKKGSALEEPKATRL
Procedure: as §1, §2, §3

[3] = target: T3, bovine eNOS (Bos taurus, UniProt P29473); experiment: NOS inhibition, oxyhemoglobin (hemoglobin capture) test, recombinant eNOS; assay type: biochemical; conditions: recombinant enzyme, 10 µM arginine, triplicate, NI = <50% inhibition at 100 μM, read-out: IC50 (μM) eNOS (Bovine)
T3 construct: Full-length recombinant rat nNOS, mouse iNOS, bovine eNOS; made in house; host or cells: Escherichia coli
Procedure: The inhibitory effects of all compounds against the three recombinant NOSs (rat nNOS, mouse iNOS, and bovine eNOS) were evaluated in 96-well plates using the oxyhemoglobin test [53].
NOS catalytic activity was measured using the hemoglobin capture assay [53]. The test was performed at 30 °C in 96-well microplates using a final volume of 200 µL. The assay mixture contained 100 µM NADPH, 10 µM BH4, 6 µM HbO2, 100 µM DTT, 5 µM FAD, 5 µM FMN, 10 µM (nNOS and eNOS), or 20 µM (iNOS) arginine, all in a 100 mM Hepes buffer, pH 7.5, and, for constitutive n- and e-NOS, 10 µg/mL calmodulin, and 1 mM CaCl2. The studied compounds were introduced as 2 μL of ×100 concentrated solutions in DMSO, and the control experiments were performed with DMSO or the buffer only. The kinetics of NO production were measured at 401 nm using an Infinite F500 microplate reader (Tecan, Singapore).

[4] = system: INS-1 cells (nNOS); experiment: Glucose-induced insulin secretion; assay type: cell-based; conditions: 5.6 mM glucose, no IL-1β, 1 h, compounds 500 µM to 5 mM, L-NAME 5 mM
Procedure: Indeed, pancreatic β-cells are known to constitutively express the nNOS isoform, which negatively modulates glucose-induced insulin secretion.
The insulin-secreting cell line INS-1 (a gift from Prof. C. Wolheim, Geneva, Switzerland) was cultured in RPMI-1640 supplemented with 10% FCS, 100 units/mL penicillin, 100 µg/mL streptomycin, 2 mM L-glutamine, 10 mM HEPES, 1 mM sodium pyruvate, and […] 2-mercaptoethanol, according to M. Asfari et al.’s method.
The functional effects of compounds were evaluated on INS-1 cells. Cells were preincubated for 1 h at 37 °C in a Krebs–Ringer bicarbonate buffer (108 mM NaCl, 1.19 mM KH2PO4, 4.74 mM KCl, 2.54 mM CaCl2, 1.19 mM MgSO4·7H2O, and 18 mM NaHCO3) containing 2 g/L BSA in the absence of glucose. After removal of the medium, the cells were stimulated for another hour at 37°C in the same buffer in the presence of 5.6 mM glucose and the presence of increasing concentrations of L-NAME or compounds (from 500 µM to 5 mM). At the end of the incubation period, the medium was collected, and the insulin was measured using an insulin high-range assay kit (CisBio, Codolet, France). Data are expressed as means ± SEM of the experiments (indicated in the result part).

[5] = target: T4, oxygenase domain of nNOS (nNOSoxy) (Rattus norvegicus, UniProt P29476); experiment: UV-visible difference spectroscopy titration of nNOSoxy; assay type: binding; conditions: UV/Vis difference spectroscopy, ± SD, three experiments; read-out: Apparent equilibrium constant Ks nNOSoxy
T4 construct: the oxygenase domain of nNOS (nNOSoxy) and iNOS (iNOSoxy); made in house; host or cells: Escherichia coli
Source text: (§4) We performed UV–visible difference spectroscopy to analyze the interaction mode of some inhibitors with the heme-active site of NOS [54]. We have studied the effects of dipeptide-like compounds 7, 17, 19, 23, and 27 and 1,2,4-oxadiazole 35 on the UV–visible spectra of the oxygenase domain of nNOS (nNOSoxy) and iNOS (iNOSoxy). As expected, when added stepwise to n- and iNOSoxy, all selected compounds elicited different spectra with a trough at ~425 nm and a peak at ~395 nm, similar to the substrate L-arginine. This profile is characteristic of type I interactions, meaning that they are bound in close proximity to the heme prosthetic group and shifted the spin state equilibrium to the pentacoordinated heme–Fe^III state. Double reverse plotting of the differences in absorbance between the peak at ~395 nm and valley at ~425 nm (ΔA395–425 nm) as a function of the concentration of the added compounds allowed calculating apparent binding constants (Ks) (Table 3). The reference inhibitor SEITU [55] tightly bound both NOS isoforms with high affinity but no selectivity. With the exception of the dipeptide-like 27 and the heterocyclic analog 35, which similarly interacted with both proteins, other compounds preferentially bound nNOSoxy over iNOSoxy with apparent affinities close to SEITU for this isoform.
as §2
(§5) This study was performed as previously described.

[6] = target: T5, oxygenase domain of iNOS (iNOSoxy) (Mus musculus, UniProt P29477); experiment: UV-visible difference spectroscopy titration of iNOSoxy; assay type: binding; conditions: UV/Vis difference spectroscopy, ± SD, three experiments; read-out: Apparent equilibrium constant Ks iNOSoxy
T5 construct: the oxygenase domain of nNOS (nNOSoxy) and iNOS (iNOSoxy); made in house; host or cells: Escherichia coli
T5 sequence (P29477 1-498 limits assumed): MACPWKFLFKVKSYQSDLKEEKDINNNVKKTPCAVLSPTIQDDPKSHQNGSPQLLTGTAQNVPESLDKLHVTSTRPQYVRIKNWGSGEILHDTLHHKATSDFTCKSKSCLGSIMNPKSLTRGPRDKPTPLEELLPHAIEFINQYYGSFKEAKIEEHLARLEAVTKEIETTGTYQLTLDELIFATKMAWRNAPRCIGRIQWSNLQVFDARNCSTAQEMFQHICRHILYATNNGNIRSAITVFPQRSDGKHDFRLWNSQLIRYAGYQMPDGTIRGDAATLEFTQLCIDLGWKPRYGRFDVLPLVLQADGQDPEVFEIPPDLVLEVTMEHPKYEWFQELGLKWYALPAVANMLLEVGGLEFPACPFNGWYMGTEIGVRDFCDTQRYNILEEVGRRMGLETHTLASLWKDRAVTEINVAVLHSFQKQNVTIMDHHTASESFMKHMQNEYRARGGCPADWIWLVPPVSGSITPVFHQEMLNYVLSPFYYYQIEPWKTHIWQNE
Source text: as §4, §2, §5

[7] = system: RAW 264.7 cells; experiment: Cell viability, MTT assay; assay type: cell-based, murine; conditions: for Reversal of LPS-induced reduction of cell viability: RAW 264.7, LPS 1 µg/mL; for Effect on cell viability (MTT): RAW 264.7, absence of LPS, up to 100 μM
Procedure: Cell viability was evaluated in the murine macrophage RAW 264.7 cells using an MTT assay for compounds 18, 21, 26, and 30. This experiment was performed without or with LPS (1 µg/mL), which induces iNOS expression (Figure S1). […] Compound 30 only killed 20% of the cells at 500 μM (Figure S1A). In the presence of LPS (1 µg/mL), cell viability was reduced by 30% due to the inhibition by NO of key enzymes involved in cell metabolism (Figure S1B).
The macrophage cell line RAW 264.7 (a gift from Dr. A. Blangy, Montpellier, France) was cultured in Dulbecco’s Modified Eagle’s Medium (DMEM) supplemented with 10% FCS, 100 units/mL penicillin, 100 µg/mL streptomycin, and 2 mM L-glutamine.
Cellular NO production was measured using the Griess reagent (Sigma-Aldrich), which evaluates the nitrite content in culture media. Cellular toxicity was estimated by the MTT assay (Sigma-Aldrich) in RAW 264.7 cells after the induction (or not) of iNOS by LPS, according to the manufacturer’s recommendations.

T3 sequence (P29473 whole entry): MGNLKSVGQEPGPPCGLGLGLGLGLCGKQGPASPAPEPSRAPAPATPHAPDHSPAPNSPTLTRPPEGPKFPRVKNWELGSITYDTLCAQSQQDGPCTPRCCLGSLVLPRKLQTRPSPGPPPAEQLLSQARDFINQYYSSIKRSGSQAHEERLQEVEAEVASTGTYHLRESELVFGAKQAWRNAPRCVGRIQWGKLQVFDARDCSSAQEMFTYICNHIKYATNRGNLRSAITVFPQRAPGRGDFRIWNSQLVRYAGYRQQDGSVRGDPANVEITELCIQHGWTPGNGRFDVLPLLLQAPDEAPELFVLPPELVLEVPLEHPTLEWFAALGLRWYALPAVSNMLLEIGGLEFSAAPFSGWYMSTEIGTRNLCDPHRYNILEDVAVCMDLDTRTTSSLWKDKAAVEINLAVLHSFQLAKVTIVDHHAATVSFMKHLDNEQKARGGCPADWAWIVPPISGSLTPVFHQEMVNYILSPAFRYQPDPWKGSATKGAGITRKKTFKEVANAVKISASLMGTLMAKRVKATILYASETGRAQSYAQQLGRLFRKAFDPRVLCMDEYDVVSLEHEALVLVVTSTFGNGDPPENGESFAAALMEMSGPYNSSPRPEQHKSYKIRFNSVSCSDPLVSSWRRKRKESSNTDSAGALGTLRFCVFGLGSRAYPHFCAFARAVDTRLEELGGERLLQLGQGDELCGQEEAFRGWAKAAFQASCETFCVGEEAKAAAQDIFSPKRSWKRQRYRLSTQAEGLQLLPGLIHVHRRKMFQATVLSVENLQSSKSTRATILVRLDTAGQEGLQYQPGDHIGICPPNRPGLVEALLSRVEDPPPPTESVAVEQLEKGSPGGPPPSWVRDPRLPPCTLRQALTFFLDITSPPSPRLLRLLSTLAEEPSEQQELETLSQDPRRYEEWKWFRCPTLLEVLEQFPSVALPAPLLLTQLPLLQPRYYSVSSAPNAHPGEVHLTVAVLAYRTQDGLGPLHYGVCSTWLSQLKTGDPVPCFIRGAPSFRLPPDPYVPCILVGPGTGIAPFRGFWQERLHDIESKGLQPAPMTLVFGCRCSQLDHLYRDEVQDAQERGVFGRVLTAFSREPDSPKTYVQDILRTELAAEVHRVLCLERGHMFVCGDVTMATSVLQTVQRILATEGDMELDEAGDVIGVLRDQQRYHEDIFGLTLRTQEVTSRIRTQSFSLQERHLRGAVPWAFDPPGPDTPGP
T1 sequence (P29476 whole entry): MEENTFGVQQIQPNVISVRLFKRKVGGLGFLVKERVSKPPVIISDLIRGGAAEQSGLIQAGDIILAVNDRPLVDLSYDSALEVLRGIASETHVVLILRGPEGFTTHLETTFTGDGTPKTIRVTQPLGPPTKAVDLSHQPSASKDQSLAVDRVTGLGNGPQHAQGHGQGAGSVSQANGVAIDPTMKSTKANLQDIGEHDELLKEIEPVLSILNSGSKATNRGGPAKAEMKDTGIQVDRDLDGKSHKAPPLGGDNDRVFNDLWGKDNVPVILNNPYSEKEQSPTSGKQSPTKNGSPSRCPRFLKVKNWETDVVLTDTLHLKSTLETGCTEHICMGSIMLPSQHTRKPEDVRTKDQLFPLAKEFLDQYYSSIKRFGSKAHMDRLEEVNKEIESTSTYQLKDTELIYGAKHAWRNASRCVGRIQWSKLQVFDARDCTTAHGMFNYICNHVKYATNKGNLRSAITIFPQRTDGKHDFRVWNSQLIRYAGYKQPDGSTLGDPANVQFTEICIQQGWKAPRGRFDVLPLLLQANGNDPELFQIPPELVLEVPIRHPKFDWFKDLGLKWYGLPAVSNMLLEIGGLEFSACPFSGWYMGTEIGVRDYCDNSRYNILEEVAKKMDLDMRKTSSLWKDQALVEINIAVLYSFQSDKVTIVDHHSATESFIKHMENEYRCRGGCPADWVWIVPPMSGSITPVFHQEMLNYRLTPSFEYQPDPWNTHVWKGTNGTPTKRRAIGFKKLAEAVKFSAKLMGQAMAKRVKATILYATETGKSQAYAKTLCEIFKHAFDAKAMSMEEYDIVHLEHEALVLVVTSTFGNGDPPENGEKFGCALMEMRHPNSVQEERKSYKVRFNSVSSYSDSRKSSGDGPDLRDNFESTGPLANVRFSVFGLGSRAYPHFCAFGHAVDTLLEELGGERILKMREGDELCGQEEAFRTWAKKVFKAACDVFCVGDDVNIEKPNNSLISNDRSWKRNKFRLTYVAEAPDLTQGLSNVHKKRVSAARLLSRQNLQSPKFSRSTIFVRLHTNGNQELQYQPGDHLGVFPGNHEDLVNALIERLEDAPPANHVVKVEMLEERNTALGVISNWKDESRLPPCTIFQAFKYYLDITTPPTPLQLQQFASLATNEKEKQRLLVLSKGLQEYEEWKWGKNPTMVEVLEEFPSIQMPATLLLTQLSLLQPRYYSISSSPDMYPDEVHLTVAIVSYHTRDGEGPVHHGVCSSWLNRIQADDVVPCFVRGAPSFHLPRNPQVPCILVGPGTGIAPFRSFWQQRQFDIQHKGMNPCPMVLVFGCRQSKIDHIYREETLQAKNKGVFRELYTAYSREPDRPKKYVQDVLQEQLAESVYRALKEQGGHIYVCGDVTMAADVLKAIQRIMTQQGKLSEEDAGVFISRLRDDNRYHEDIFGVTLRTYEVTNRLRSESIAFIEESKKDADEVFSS
T4 sequence (P29476 1-720 limits assumed): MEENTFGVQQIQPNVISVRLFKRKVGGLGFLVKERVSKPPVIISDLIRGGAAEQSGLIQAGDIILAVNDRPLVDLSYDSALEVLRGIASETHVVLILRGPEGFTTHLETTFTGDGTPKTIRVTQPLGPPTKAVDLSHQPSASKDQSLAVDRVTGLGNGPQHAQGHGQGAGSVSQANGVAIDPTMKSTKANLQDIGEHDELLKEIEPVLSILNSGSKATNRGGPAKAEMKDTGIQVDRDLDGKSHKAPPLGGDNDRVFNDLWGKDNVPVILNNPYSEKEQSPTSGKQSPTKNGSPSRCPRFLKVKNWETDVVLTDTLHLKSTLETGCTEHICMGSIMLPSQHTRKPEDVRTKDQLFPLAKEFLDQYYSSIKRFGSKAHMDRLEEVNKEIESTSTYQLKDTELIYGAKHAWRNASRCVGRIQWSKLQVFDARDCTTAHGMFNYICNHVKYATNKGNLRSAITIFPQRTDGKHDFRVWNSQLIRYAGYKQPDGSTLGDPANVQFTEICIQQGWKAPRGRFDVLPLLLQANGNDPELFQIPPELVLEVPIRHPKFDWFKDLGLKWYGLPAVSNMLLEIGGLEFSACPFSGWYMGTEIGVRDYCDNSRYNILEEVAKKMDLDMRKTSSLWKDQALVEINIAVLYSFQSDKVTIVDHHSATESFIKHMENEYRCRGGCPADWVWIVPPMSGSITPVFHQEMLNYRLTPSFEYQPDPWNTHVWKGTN

Row | SMILES | IC50 ([1]; dipeptide-like series) [µM] | IC50 ([2]; dipeptide-like series) [µM] | inhibition at 100 µM ([3]; dipeptide-like series) [%] | Effect on insulin secretion [4] | Kd [5] [µM] | Kd [6] [µM] | further results
1 | CCSC(=N)NCCC[C@H](N)C(=O)N[C@H]1CCCN(Cc2ccc3ccccc3c2)C1 [Compound 22] | 12.7 | 11.9 | < 50 | dose-dependently stimulate glucose insulin secretion with better efficiency than L-NAME |  |  | 
2 | CCSC(=N)NCCC[C@H](N)C(=O)N[C@H]1CCCN(Cc2cc([N+](=O)[O-])ccc2O)C1 [Compound 14] | 5.4 | 27.8 |  | dose-dependently stimulate glucose insulin secretion with better efficiency than L-NAME |  |  | 
3 | CCSC(=N)NCCC[C@H](N)C(=O)N[C@H]1CCCN(Cc2ccccc2C(F)(F)F)C1 [Compound 19] | 7.7 |  | < 50 |  | 5.2 ± 1.1 | 96 ± 36 | inhibition at 100 µM ([2]; dipeptide-like series): < 50%
4 | COC(=O)[C@@H](N)CCCNC(N)=N[N+](=O)[O-] [L-NAME, reference compound] |  |  |  | potentiated insulin release |  |  | 
5 | CCSC(=N)NCCC[C@H](N)C(=O)N[C@H]1CCCN(Cc2cccc(-c3cccc([N+](=O)[O-])c3)c2)C1 [Compound 26] | 1.3 | 48.3 | < 50 |  |  |  | Reversal of LPS-induced reduction of cell viability [7]: none partially reversed the LPS effect; Effect on cell viability (MTT) [7]: fully toxic
6 | CCSC(=N)NCCC[C@H](N)C(=O)N[C@H]1CCCN(Cc2ccc(C(F)(F)F)c(Cl)c2)C1 [Compound 18] | 6 |  | < 50 | dose-dependently stimulate glucose insulin secretion with better efficiency than L-NAME |  |  | inhibition at 100 µM ([2]; dipeptide-like series): < 50%; Reversal of LPS-induced reduction of cell viability [7]: none partially reversed the LPS effect; Effect on cell viability (MTT) [7]: fully toxic
7 | CCSC(=N)NCCC[C@H](N)c1nc(CCN(Cc2ccc3ccccc3c2)Cc2ccc3ccccc3c2)no1 [Compound 35] |  |  |  |  | 47.1 ± 13 | 42.4 ± 8.7 | IC50 ([1]; 1,2,4-oxadiazole series): 0.4 µM; Selectivity for nNOS against eNOS ([1]; from IC50 values): > 250 fold; Selectivity for nNOS against iNOS ([1]; from IC50 values): approximately 30 fold; IC50 ([2]; 1,2,4-oxadiazole series): 11.7 µM; inhibition at 100 µM ([3]; 1,2,4-oxadiazole series): < 50%
8 | CCSC(=N)NCCC[C@H](N)C(=O)N[C@H]1CCCN(Cc2ccc(-c3ccccc3)cc2)C1 [Compound 23] | 5.4 | 46.9 | < 50 |  | 11.4 ± 3.8 | 92.5 ± 8.8 | 
